pIC50: −log10 of the molar value. Where two headings read alike, the source gives them in different places.
Tests used:
[1] = molecular target: T1, human N-type Ca channel (Homo sapiens, UniProt Q00975); assay: Calcium influx assay (FDSS), KCl depolarization, Fluo8 dye; type: cell-based; set-up: host or cells: HEK 293
How it was run: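 HEK293 cells stably expressing the human N-type Ca channel were loaded with Fluo8 and washed in choline-based buffer (pH 7.2, 2 mM CaCl2, 2 mM KCl). Cells were preincubated with serially diluted compound for 15 min in the dark. Ca influx was then recorded by fluorescence after depolarization with 100 mM KCl.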

[2] = molecular target: T1, human N-type Ca channel; assay: Electrophysiological response, QPatch (depolarization -80 mV to +20 mV); conditions: for pIC50: concentration range 0.01-1 µM
Experimental: The recombinant cell line described above was used in the measurement of electrophysiological properties with QPatch (Sophion). Cells were maintained in culture as mentioned above. Prior to the experiment, the flasks were moved to 30 °C and incubated for 48-72 hrs. On the day of assaying, cells were detached and harvested. The cell pellet was re-suspended in SMF4HEK (HyClone)/25mM HEPS at 2-5 million/ mL and placed on the QStirrer of the QPatch for 30-60 min prior to the start of the assay. […] Microtiter-Plate/Reference Buffer contained 140 mM TEA-Cl, 10mM BaCl2, 0.8 mM MgCl2, 10 mM HEPES pH ∼7.4 adjusted with TEA-OH/HCl, and ∼300mOsm. Cells were transferred to a QPatch 48 plate and gigaseal was formed. The plate was perfused with intracellular and extracellular buffer. […] In brief, cells were depolarized from resting potential of -80 mV to +20 mV and current was recorded. Data was plotted as percent inhibition vs concentration of the compound and IC50 values were generated using Graphpad Prism non-linear regression analysis.

[3] = test system: Rats; assay: Sciatic nerve ligation (SNL) model of neuropathic pain, L5/L6 spinal nerve ligation, von Frey filaments; type: in vivo; conditions: response at Tmax
Excerpt: Left L5 and L6 spinal nerves are isolated adjacent to the vertebral column and were ligated with 5-0 silk suture distal to the dorsal root ganglion, as described by Kim and Chung (1992). The incision was closed with the help of GLUture topical tissue adhesive. At 14 days post-surgery (one day prior to test compound administration), mechanical allodynia was quantified using eight von Frey filaments, calibrated in the range 0.4-15.1 g (Nielsen et al 2005). Rats were placed into individual plastic containers on top of a suspended wire mesh grid and acclimated to the test chambers for at least 15 min. Filaments were applied perpendicular to the mid-plantar paw surface, with enough force to cause slight buckling, and held in place for 6-8 sec until a response was noted as a sharp paw withdrawal, flinching, licking and/or biting immediately upon removal of the filament (Nielsen et al 2005). […] Test compounds of Formula (I) were administered and a response was measured at Tmax. The maximum possible effect (% MPE) was determined to be 100% if the sensitivity in the ipsilateral paw neared that of the contralateral paw. Values from vehicle-treated animals were considered 0 %. The compound effect was determined based on these values.

[4] = test system: CFA-induced mechanical allodynia; assay: Complete Freund's Adjuvant (CFA) induced mechanical allodynia, Von Frey test; type: in vivo
Experimental: Animals arrived and were acclimatized for 1-2 weeks in a temperature-controlled room with a 12 h light/dark cycle and allowed free access to standard laboratory chow and water.
CFA (Sigma) was injected intra-plantar (75 µg/150 µL) from a concentration of 1:1 (diluted 1 mg/ mL of CFA in 1 mL ofPBS). CFA-induced mechanical allodynia was quantified by a Von frey test on day 2 (48 h post injection of CFA) and animals were randomized based on iPWT response (Dixon 1980). […] Animals were administered a compound of Formula (I) through appropriate route based on their pharmacokinetic properties. Responses were measured with a Von-Frey filament. The maximum possible effect (% MPE) was determined as 100% if sensitivity in ipsilateral paw neared that of the contralateral paw. Values from the vehicle-treated animals were considered 0%. The compound effect was determined based on these values.

T1 sequence (Q00975 whole entry): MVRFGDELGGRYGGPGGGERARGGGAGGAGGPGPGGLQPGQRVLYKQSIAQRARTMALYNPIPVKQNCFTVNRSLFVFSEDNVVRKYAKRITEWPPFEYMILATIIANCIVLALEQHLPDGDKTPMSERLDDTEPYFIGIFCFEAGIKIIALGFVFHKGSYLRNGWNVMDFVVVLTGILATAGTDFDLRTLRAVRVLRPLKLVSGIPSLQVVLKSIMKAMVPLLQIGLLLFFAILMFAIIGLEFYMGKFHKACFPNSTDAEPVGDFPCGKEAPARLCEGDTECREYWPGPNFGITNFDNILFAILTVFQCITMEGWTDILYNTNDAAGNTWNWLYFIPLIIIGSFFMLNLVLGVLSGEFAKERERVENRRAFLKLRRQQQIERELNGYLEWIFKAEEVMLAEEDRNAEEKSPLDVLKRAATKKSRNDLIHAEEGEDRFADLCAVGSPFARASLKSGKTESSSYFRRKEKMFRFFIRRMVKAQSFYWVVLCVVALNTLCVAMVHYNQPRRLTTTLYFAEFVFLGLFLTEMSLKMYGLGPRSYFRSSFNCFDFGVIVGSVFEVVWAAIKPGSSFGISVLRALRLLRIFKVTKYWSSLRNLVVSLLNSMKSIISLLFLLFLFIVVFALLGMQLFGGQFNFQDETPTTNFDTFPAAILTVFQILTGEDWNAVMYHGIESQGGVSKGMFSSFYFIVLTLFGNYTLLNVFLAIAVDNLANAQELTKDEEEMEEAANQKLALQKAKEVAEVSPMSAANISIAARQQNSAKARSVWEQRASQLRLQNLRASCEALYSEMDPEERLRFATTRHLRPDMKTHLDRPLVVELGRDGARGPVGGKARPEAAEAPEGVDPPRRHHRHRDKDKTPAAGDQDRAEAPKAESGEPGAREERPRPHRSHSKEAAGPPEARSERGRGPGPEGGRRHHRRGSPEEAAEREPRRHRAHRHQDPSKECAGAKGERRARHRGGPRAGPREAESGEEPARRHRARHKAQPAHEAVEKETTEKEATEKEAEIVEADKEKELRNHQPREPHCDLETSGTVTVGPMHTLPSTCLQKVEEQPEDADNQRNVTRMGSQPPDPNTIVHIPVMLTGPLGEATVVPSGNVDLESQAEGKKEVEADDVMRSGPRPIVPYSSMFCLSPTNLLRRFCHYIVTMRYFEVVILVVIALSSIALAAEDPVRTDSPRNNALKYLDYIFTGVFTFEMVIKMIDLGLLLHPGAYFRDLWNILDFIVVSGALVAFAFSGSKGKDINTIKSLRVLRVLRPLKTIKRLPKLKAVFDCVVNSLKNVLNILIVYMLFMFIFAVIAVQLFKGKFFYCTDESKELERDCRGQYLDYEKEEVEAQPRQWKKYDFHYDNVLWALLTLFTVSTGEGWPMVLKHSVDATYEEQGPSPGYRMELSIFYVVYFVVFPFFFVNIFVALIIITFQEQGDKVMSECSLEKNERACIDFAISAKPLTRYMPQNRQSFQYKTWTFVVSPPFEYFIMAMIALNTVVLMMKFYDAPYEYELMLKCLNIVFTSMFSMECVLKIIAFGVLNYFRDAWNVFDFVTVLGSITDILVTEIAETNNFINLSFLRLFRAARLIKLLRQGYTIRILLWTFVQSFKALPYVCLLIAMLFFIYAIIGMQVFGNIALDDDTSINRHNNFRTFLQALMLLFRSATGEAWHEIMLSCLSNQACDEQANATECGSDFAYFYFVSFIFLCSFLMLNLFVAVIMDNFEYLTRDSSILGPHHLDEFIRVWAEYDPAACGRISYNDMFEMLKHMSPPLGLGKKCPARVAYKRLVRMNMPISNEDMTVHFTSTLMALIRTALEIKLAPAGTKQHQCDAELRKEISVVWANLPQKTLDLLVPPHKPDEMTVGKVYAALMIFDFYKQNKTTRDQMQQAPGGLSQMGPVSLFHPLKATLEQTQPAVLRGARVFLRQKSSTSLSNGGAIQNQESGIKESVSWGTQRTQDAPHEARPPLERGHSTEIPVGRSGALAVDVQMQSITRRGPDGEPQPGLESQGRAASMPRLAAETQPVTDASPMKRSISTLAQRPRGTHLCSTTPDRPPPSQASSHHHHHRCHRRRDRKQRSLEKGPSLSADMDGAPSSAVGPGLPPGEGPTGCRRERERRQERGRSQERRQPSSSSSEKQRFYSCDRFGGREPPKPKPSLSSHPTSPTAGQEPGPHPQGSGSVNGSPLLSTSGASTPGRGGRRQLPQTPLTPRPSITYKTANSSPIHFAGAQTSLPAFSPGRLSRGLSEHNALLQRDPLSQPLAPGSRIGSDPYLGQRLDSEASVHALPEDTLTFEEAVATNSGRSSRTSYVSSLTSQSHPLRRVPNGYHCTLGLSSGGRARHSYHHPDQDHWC
T1 sequence (P54284 whole entry partner): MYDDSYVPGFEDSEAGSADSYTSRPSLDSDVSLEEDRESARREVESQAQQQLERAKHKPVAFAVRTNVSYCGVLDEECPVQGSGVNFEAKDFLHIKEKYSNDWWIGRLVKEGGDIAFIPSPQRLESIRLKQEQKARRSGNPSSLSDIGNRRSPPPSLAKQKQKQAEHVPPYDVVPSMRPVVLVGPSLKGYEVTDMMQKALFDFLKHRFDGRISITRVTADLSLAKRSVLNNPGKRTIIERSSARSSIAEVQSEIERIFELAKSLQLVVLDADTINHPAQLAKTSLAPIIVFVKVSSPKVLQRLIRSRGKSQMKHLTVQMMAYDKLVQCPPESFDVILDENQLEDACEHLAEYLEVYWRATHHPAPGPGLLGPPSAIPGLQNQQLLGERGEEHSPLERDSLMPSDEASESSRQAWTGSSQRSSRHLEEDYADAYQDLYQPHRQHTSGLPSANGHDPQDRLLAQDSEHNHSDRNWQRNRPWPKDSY
T1 sequence (P54289 25-956 partner limits assumed): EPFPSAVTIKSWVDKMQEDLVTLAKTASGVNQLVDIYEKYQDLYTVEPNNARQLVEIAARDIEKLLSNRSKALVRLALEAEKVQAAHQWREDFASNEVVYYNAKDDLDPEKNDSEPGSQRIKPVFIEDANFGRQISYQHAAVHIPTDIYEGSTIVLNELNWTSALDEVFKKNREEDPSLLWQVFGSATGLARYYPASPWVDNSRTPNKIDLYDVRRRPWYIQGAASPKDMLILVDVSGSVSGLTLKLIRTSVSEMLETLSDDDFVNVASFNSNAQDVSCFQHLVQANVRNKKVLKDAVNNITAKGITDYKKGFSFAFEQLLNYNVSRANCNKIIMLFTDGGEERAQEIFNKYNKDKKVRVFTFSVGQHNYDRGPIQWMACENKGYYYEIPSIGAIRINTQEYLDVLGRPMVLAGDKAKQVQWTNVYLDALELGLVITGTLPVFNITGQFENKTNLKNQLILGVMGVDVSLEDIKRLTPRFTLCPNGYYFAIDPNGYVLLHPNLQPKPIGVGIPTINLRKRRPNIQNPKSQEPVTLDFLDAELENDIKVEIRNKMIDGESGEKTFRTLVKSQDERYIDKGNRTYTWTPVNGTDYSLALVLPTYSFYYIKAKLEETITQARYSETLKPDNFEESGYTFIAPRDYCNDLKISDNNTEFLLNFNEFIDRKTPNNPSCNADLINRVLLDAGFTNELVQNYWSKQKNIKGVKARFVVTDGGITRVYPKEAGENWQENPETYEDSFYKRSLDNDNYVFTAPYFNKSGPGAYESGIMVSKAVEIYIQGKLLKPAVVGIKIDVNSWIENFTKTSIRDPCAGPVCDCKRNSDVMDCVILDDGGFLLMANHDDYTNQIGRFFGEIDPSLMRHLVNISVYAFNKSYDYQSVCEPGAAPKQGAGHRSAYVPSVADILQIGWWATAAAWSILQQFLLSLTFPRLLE
T1 sequence (P54289 957-1103 partner limits assumed): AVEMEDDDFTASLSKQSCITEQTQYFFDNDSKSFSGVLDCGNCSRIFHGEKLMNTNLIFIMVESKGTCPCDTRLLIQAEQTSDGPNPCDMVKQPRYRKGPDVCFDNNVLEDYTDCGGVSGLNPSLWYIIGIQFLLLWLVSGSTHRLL

SMILES: COc1ccccc1-c1nc(C2CC(C)(C)OC(C)(C)C2)cn1-c1ccc(C#N)cc1 [Compound 1, 4-[2-(2-Methoxyphenyl)-4-(2,2,6,6-tetramethyltetrahydro-2H-pyran-4-yl)-1H-imidazol-1-yl]benzonitrile]
- pIC50 ([1]; HEK 293 cells expressing human N-type Ca channel, 100 mM KCl, read-out: N Type IC50 Data FDSS): 7.39
- pIC50 ([2]; N Type IC50 Data Qpatch Pulse=1, Pulse=1): 6.44
- pIC50 ([2]; N Type IC50 Data Qpatch Pulse=15, Pulse=15): < 6.00
- SNL(%MPE) ([3]; Dose 12.5 mg/kg): 22.21±7.61%
- SNL(%MPE) ([3]; Dose 25 mg/kg): 40.9±20.29%
- SNL(%MPE) ([3]; Dose 100 mg/kg): 75±13.01%
- CFA (% Reversal) ([4]; Dose 12.5 mg/kg): 19.73±8.25%
- CFA (% Reversal) ([4]; Dose 25 mg/kg): 37.62±7.17%
- CFA (% Reversal) ([4]; Dose 50 mg/kg): 58.8±10.22%
- CFA (% Reversal) ([4]; Dose 100 mg/kg): 75.26±8.96%

SMILES: COc1ncccc1-c1nc(C2CC(C)(C)OC(C)(C)C2)cn1-c1ccc(Cl)cc1 [Compound 11, 3-(1-(4-chlorophenyl)-4-(2,2,6,6-tetramethyltetrahydro-2H-pyran-4-yl)-1H-imidazol-2-yl)-2-methoxypyridine]
- pIC50 [1]: 7.09
- inhibition at 10 µM ([2]; read-out: Qpatch Pulse=1 (percent inhibition)): 63%
- inhibition at 10 µM ([2]; read-out: Qpatch Pulse=15 (percent inhibition)): 21%
- SNL(%MPE) ([3]; Dose 3 mg/kg): 28.29± 10.84%
- SNL(%MPE) ([3]; Dose 10 mg/kg): 49.01±9.93%
- SNL(%MPE) ([3]; Dose 30 mg/kg): 70.69±10.3%
- SNL(%MPE) ([3]; Dose 60 mg/kg): 96.18±3.22%
- CFA (% Reversal) ([4]; Dose 3 mg/kg): 20.97±7.88%
- CFA (% Reversal) ([4]; Dose 10 mg/kg): 41.12±5.14%
- CFA (% Reversal) ([4]; Dose 30 mg/kg): 55.8±11.32%
- CFA (% Reversal) ([4]; Dose 60 mg/kg): 76.4±3.78%

Source: EP3033337B1, “SUBSTITUTED IMIDAZOLES AS N-TYPE CALCIUM CHANNEL BLOCKERS” (Janssen Pharmaceutica NV, priority 2013, dated 2015)
